# Test system: JAK2-dependent nuclear translocation of STAT5-GFP in U-2 OS osteosarcoma cells
# Assay: STAT5 nuclear translocation assay (Cellomics), rhEpo stimulated U-2 OS STAT5-GFP cells
# Type: cell-based
# Conditions: Homo sapiens, U2OS; STAT5 translocation pathway
# Summary of the method: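 U-2 OS cells stably expressing STAT5a-GFP and EpoR pre-treated with compound (final 10 μM to 0.003 μM, 0.1% DMSO) for 30 min at 37° C., then stimulated 1 h with 5 U/ml rhEpo. Nuclear-cytoplasmic GFP differential quantified by automated imaging (≥1000 cells/well, Hoechst nuclear mask). IC50 from % translocation normalized to untreated and DMSO-stimulated controls.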
row,SMILES,IC50
1,"Cc1ccc(Nc2ncc3ccn(-c4cc(F)c(CN5CCNC(=O)C5)c(F)c4)c3n2)cc1CN1CCNCC1 [Example 382, 4-{2,6-Difluoro-4-[2-(4-methyl-3-piperazin-1-ylmethyl-phenylamino)-pyrrolo[2,3-d]pyrimidin-7-yl]-benzyl}-piperazin-2-one]",121 nM
2,"CN1CCN(c2ccc(Nc3ncc4ccn(-c5cc(F)c(CN6CCS(=O)(=O)CC6)c(F)c5)c4n3)nc2)CC1 [Example 440, {7-[4-(1,1-Dioxido-thiomorpholin-4-ylmethyl)-3,5-difluoro-phenyl]-7H-pyrrolo[2,3-d]pyrimidin-2-yl}-[5-(4-methyl-piperazin-1-yl)-pyridin-2-yl]-amine]",61 nM
3,"COCc1c(F)cc(-n2ccc3cnc(Nc4ccc(N5CCN(C)CC5)nc4)nc32)cc1F [Example 446, [7-(3,5-Difluoro-4-methoxymethyl-phenyl)-7H-pyrrolo[2,3-d]pyrimidin-2-yl]-[6-(4-methyl-piperazin-1-yl)-pyridin-3-yl]-amine]",1.3 nM
4,"CC1(C)NCCN(c2cc(Nc3ncc4ccn(-c5cc(F)c(CN6CCOCC6)c(F)c5)c4n3)ccn2)C1=O [Example 503, 1-{4-[7-(3,5-Difluoro-4-morpholin-4-ylmethyl-phenyl)-7H-pyrrolo[2,3-d]pyrimidin-2-ylamino]-pyridin-2-yl}-3,3-dimethyl-piperazin-2-one]",27.5 nM
5,"C[C@@H]1CN(c2ccc(Nc3ncc4ccn(-c5ccc(NS(C)(=O)=O)cc5)c4n3)cn2)C[C@H](C)N1 [Example 380, N-(4-{2-[6-(cis-3,5-Dimethyl-piperazin-1-yl)-pyridin-3-ylamino]-pyrrolo[2,3-d]pyrimidin-7-yl}-phenyl)-methanesulfonamide]",46 nM
6,"Fc1cc(-n2ccc3cnc(Nc4ccnc(CN5CCNCC5)c4)nc32)cc(F)c1CN1CCOCC1 [Example 372, [7-(3,5-Difluoro-4-morpholin-4-ylmethyl-phenyl)-7H-pyrrolo[2,3-d]pyrimidin-2-yl]-(2-piperazin-1-ylmethyl-pyridin-4-yl)-amine]",57 nM
7,"Cc1ccc(Nc2ncc3ccn(-c4cc(F)c(CN5CCOCC5)c(F)c4)c3n2)cc1CN1CCNCC1 [Example 332, [7-(3,5-Difluoro-4-morpholin-4-ylmethyl-phenyl)-7H-pyrrolo[2,3-d]pyrimidin-2-yl]-(4-methyl-3-piperazin-1-ylmethyl-phenyl)-amine]",73 nM

# Test system: JAK1/JAK2-dependent nuclear translocation of STAT1-GFP in HT1080 fibrosarcoma cells
# Assay: STAT1 nuclear translocation assay (Cellomics), IFN-γ stimulated HT1080 STAT1-GFP cells
# Type: cell-based
# Conditions: Homo sapiens, HT-1080, STAT1 translocation pathway
# Summary of the method: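 HT1080 cells stably expressing STAT1-GFP, pre-treated 30 min with compound (10 μM–0.003 μM, 0.1% DMSO), then stimulated 2 h with 100 ng/ml IFN-γ, fixed and Hoechst-stained. Nuclear-cytoplasmic GFP differential imaged over ≥1000 cells/well, normalised to unstimulated and DMSO-stimulated wells for IC50.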
row,SMILES,IC50
1,"COCc1ccc(Nc2ncc3ccn(-c4cc(F)c(CN5CCS(=O)(=O)CC5)c(F)c4)c3n2)cc1 [Example 184, {7-[4-(1,1-Dioxido-thiomorpholin-4-ylmethyl)-3,5-difluoro-phenyl]-7H-pyrrolo[2,3-d]pyrimidin-2-yl}-(4-methoxymethyl-phenyl)-amine]",35 nM
2,"COCc1c(F)cc(-n2ccc3cnc(Nc4ccc(N5CCN(C)CC5)nc4)nc32)cc1F [Example 446, [7-(3,5-Difluoro-4-methoxymethyl-phenyl)-7H-pyrrolo[2,3-d]pyrimidin-2-yl]-[6-(4-methyl-piperazin-1-yl)-pyridin-3-yl]-amine]",50 nM
3,"Cn1cc(Nc2ncc3ccn(-c4ccc(CC(=O)N5CCOCC5)cc4)c3n2)cn1 [Example 301, 2-{4-[2-(1-Methyl-1H-pyrazol-4-ylamino)-pyrrolo[2,3-d]pyrimidin-7-yl]-phenyl}-1-morpholin-4-yl-ethanone]",50 nM
4,"Cc1ccc(Nc2ncc3ccn(-c4ccc(C(=O)N5CCOCC5)cc4)c3n2)cn1 [Example 238, {4-[2-(6-Methyl-pyridin-3-ylamino)-pyrrolo[2,3-d]pyrimidin-7-yl]-phenyl}-morpholin-4-yl-methanone]",785 nM
5,"COc1cc(Nc2ncc3ccn(-c4ccc(C(=O)N5CCOCC5)c(F)c4)c3n2)ccc1F [Example 151, {2-Fluoro-4-[2-(4-fluoro-3-methoxy-phenylamino)-pyrrolo[2,3-d]pyrimidin-7-yl]-phenyl}-morpholin-4-yl-methanone]",228 nM
6,"Cc1ccc(Nc2ncc3ccn(-c4cc(F)c(CN5CCOCC5)c(F)c4)c3n2)cc1CN1CCNCC1 [Example 332, [7-(3,5-Difluoro-4-morpholin-4-ylmethyl-phenyl)-7H-pyrrolo[2,3-d]pyrimidin-2-yl]-(4-methyl-3-piperazin-1-ylmethyl-phenyl)-amine]",375 nM
7,"Cc1ccc(Nc2ncc3ccn(-c4ccc(C(=O)N5CCN(CCO)CC5)cc4)c3n2)cc1C [Example 300, {4-[2-(3,4-Dimethyl-phenylamino)-pyrrolo[2,3-d]pyrimidin-7-yl]-phenyl}-[4-(2-hydroxy-ethyl)-piperazin-1-yl]-methanone]",2030 nM
8,"CN1CCN(C(=O)c2cccc(Nc3ncc4ccn(-c5cc(F)c(CN6CCOCC6)c(F)c5)c4n3)c2)CC1 [Example 203, {3-[7-(3,5-Difluoro-4-morpholin-4-ylmethyl-phenyl)-7H-pyrrolo[2,3-d]pyrimidin-2-ylamino]-phenyl}-(4-methyl-piperazin-1-yl)-methanone]",412 nM
9,"Cc1cc(Nc2ncc3ccn(-c4ccc(C(=O)N5CCOCC5)c(F)c4)c3n2)nn1C [Example 311, {4-[2-(1,5-Dimethyl-1H-pyrazol-3-ylamino)-pyrrolo[2,3-d]pyrimidin-7-yl]-2-fluoro-phenyl}-morpholin-4-yl-methanone]",1400 nM
10,"CC(C)Oc1ccc(Nc2ncc3ccn(-c4ccc(C#N)cc4)c3n2)cc1 [Example 96, 4-[2-(4-Isopropoxy-phenylamino)-pyrrolo[2,3-d]pyrimidin-7-yl]-benzonitrile]",26200 nM
